Values of other authors, collected in patent US12378302B2, “Fusion molecules and uses thereof” (Foundation Medicine, Inc., priority 2012, dated 2025).

Tests used:
[1] = tested on: Smad4-null cells; details: pre-clinical mouse models
[2] = tested on: glioblastoma cell lines
[3] = target: ErbB3 (Homo sapiens, UniProt P21860)
[4] = target: T1, ErbB4 (Homo sapiens, UniProt Q15303)
T1 construct: host or cells: glioblastoma cell lines

[5] = tested on: pancreatic cancer; details: Phase 2, gefitinib with gemcitabine
[6] = tested on: pancreatic cancer; details: Phase 2, pancreatic cancer
[7] = tested on: KIF5B-RET transformed cells; details: Lipson et al
[8] = tested on: advanced non-small cell lung cancer
[9] = target: inactive form of ErbB4 (Homo sapiens, UniProt Q15303); details: region conserved in all EGF family members
inactive form of ErbB4, sequence (Q15303 702-1029 limits assumed): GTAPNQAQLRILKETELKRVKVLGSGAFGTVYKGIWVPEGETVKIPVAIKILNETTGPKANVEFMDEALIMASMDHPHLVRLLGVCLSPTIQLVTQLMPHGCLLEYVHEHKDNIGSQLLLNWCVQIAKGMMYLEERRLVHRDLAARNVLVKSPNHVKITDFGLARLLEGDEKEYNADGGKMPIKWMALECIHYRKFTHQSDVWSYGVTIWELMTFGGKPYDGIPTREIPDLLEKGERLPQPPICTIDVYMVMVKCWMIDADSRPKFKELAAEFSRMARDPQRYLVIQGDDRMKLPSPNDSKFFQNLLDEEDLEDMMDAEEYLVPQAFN

ErbB3, sequence (P21860 20-1342): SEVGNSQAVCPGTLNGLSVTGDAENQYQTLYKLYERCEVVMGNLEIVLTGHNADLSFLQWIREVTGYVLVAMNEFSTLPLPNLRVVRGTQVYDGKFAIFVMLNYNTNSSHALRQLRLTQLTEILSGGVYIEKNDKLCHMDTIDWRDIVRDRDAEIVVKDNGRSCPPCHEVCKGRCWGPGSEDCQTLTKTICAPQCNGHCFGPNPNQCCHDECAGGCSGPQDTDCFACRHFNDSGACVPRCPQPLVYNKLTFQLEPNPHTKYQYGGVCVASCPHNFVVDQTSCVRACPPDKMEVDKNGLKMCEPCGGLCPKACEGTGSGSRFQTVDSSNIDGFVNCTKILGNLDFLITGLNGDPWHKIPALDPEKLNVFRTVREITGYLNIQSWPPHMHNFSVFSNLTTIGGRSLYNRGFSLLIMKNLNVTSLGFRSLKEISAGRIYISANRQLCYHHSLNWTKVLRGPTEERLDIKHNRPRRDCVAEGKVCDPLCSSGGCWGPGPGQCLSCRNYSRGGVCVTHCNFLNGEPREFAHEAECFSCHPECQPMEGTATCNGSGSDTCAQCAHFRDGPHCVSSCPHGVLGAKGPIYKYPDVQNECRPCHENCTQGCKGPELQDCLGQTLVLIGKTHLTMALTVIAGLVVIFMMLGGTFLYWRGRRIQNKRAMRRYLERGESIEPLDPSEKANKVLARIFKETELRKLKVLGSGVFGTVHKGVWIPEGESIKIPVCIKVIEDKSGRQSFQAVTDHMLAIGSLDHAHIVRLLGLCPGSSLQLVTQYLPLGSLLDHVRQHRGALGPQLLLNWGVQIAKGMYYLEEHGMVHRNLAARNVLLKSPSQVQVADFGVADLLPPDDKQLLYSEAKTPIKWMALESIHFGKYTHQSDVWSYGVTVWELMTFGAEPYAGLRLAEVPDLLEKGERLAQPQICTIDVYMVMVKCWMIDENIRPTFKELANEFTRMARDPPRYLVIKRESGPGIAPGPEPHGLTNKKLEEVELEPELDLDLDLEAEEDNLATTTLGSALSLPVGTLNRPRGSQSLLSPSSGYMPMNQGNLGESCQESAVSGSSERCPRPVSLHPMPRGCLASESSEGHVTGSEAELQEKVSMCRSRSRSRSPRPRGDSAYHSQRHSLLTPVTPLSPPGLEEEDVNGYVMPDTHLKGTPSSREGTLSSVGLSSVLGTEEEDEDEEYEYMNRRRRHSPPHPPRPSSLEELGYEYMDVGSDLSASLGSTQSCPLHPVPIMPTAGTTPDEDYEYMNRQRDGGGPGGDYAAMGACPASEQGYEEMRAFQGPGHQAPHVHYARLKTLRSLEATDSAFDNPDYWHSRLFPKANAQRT
T1 sequence (Q15303 26-1308): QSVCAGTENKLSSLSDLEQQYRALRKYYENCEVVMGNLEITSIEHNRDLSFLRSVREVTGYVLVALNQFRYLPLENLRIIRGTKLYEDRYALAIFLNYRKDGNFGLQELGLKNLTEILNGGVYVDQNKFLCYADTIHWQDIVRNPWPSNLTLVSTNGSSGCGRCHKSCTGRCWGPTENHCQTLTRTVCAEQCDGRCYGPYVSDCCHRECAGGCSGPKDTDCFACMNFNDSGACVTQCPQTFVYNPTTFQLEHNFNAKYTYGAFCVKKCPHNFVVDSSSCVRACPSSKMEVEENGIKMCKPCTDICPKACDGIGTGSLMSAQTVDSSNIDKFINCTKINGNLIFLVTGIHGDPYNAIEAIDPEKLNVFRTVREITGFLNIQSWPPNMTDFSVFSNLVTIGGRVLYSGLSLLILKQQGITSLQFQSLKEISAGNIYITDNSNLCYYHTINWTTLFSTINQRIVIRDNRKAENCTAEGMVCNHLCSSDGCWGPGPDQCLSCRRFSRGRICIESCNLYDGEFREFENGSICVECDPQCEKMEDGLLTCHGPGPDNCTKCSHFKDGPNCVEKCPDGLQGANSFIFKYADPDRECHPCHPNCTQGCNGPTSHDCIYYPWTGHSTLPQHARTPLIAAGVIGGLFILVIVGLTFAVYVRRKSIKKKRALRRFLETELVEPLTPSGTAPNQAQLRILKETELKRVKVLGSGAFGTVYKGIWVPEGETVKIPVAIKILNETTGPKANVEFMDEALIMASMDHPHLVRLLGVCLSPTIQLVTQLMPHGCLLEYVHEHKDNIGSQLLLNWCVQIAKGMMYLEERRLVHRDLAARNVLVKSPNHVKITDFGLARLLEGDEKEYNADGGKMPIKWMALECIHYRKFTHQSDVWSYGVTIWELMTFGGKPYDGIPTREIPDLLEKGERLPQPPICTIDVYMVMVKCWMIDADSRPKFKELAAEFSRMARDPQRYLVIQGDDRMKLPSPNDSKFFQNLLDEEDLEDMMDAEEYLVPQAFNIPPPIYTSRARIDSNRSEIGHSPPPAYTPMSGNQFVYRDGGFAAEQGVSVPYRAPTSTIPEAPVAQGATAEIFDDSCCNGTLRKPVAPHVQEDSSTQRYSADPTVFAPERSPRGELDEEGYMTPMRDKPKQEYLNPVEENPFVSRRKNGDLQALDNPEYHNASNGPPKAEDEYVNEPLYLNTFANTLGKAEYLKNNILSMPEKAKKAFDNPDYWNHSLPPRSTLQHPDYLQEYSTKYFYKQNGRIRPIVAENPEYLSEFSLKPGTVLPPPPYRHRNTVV

Row | binding to ErbB3, preventing phosphorylation and therefore activation [3] | binding to ErbB4, preventing phosphorylation and therefore activation [4] | binding to ErbB4 [9] | Compound | metastasis of Smad4-null cells [1] | Akt/Erk pathway [2] | cell cycle [2] | instances of stable disease [5] | responses [5] | efficacy [6] | sensitivity of KIF5B-RET transformed cells [7] | progression-free survival compared with combination chemotherapy ([8]; chemo-naïve patients with known EGFR mutations in their tumor) | survival benefit compared to placebo ([8]; patients who had progressed on first-line therapy)
1 | – | – | – | c1ccc(-c2nn3c(c2-c2ccnc4cc(OCCN5CCOCC5)ccc24)CCC3)nc1 [LY2109761, 7-(2-morpholinoethoxy)-4-(2-(pyridin-2-yl)-5,6-dihydro-4H-pyrrolo[1,2-b]pyrazol-3-yl)quinoline] | block metastasis | – | – | – | – | – | – | – | –
2 | bind | bind | – | COc1cc2ncnc(Nc3ccc(F)c(Cl)c3)c2cc1OCCCN1CCOCC1 [gefitinib] | – | decrease | cell cycle arrest | 12/53 | 6/53 | some efficacy | not | significant improvement in progression-free survival | failed to show a survival benefit
3 | bind | bind | bind an inactive form of ErbB4 | CS(=O)(=O)CCNCc1ccc(-c2ccc3ncnc(Nc4ccc(OCc5cccc(F)c5)c(Cl)c4)c3c2)o1 [lapatinib] | – | decrease | cell cycle arrest | – | – | – | – | – | –
